# Assay results published in patent publication US7998474B2, “Methods for treating an inflammatory disease of the bowel” (Rowett Research Institute, priority 2001, dated 2011).
# Marks after values point to notes of the source that are not given here.
# Assays:
# [1] = Viability of the bacterium in jelly; conditions: commercial jelly prepared under anaerobic conditions, set at 4° C.
# Protocol: Ten ml of B. thetaiotaomicron culture was centrifuged (2000 g, 12 min), the pellet was washed with 0.05M phosphate buffered saline pH 7.2 and then resuspended in commercial jelly [10 ml, 37° C., prepared under anaerobic conditions]. The jelly was poured into a sterile petri dish under CO2 and allowed to set at 4° C. Approximately 1 hour later, the jelly was cut into weighed amounts (0.5 g, ˜10^8 CFU B. thetaiotaomicron) and fed to the rats. The bacterium remained viable for at least 6 hours under these conditions. However, usually all jelly was eaten within a few minutes of being placed in the cage.
# PPARγ [2] = experiment: Cellular distribution of PPARγ in Caco-2 cells (immunocytochemistry, western blot); conditions: Caco-2 cells, co-culture of S. enteritidis with B. thetaiotaomicron
# PPARγ [3] = experiment: Northern hybridisation of PPAR mRNA in Caco-2 cells; assay type: cell-based; conditions: Caco-2 cells exposed to S. enteritidis and B. thetaiotaomicron, 2 hours
# Immunoreactive MPO = Immunoreactive MPO in intestinal contents or faeces (competitive ELISA); assay type: in vivo, Hooded Lister rats; conditions: during 6d post-infection, mean ± SD, n = 6
# Protocol: Immunoreactive MPO in intestinal contents or faeces was determined by a competitive ELISA method. Microtiter plates (Immulon 4, Dynex Technologies, Ashford, UK) were coated [10 ng/well] with human myeloperoxidase in 10 mM phosphate buffered saline pH 7.4 [PBS] overnight at 4° C. After washing [PBS containing Tween-20 (1 ml/l], plates were blocked with PBS containing bovine serum albumin (BSA, 10 g/l) for 1 hour at room temperature. Plates were washed and samples or standards added [50 μl/well] and serially diluted in PBS containing BSA (1 g/l), Tween-20 (1 ml/l) and leupeptin (1 mg/l). Rabbit anti-human myeloperoxidase antibody [Calbiochem, UK, 50 μl/well of 1:4000 dilution] was also added. The plates were incubated for 1 hour, washed and then reacted for 1 hour with biotinylated anti-rabbit IgG followed by Extravidin/peroxidase (EXTRA-3 kit, Sigma-Aldrich, Poole, UK). After washing, TMB reagent (7 μl/well) was added and incubated in the dark for up to 2 hours. The reaction was stopped by addition (50 μl/well) of 0.18M H2SO4 and the absorbance read at 450 nm. Values were expressed as immunoreactive MPO equivalents.
# Myeloperoxidase (MPO) = Myeloperoxidase (MPO) activity in rat tissue; assay type: in vivo, Hooded Lister rats; conditions: 6d post-infection, mean ± SD, n = 6
# Protocol: Tissue samples were homogenised (1:80 w/v) in ice-cold 5 mM potassium phosphate buffer pH 6.0 using a Janke-Kunkel Ultra-Turrax T25 tissue homogeniser at 20,000 rev min^−1 for 30 seconds and centrifuged (3000 g×30 min, 4° C.). The pellet (1:20 w/v) was sonicated (3×5 sec) in ice-cold 0.5M potassium phosphate pH 6.0 containing hexadecyltrimethyl-ammonium bromide (HETAB, 5 g/l) and ethylenediaminetetraacetic acid (EDTA, 3.72 g/1), left on ice for 30 min and centrifuged (3000 g×30 min, 4° C.) [Stucchi et al, 2000]. The supernatant was frozen until assayed. Myeloperoxidase (MPO) activity was determined by monitoring H2O2 dependent oxidation of 3,3′,5,5′-tetramethylbenzidine (TMB, Dynex Technologies, Ashford, UK) in 50 mM potassium phosphate buffer pH 6.0 (Zimmerman and Granger, 1990). Absorbance at 450 nm was measured after termination of the reaction with 0.18M H2SO4. Human myeloperoxidase (Calbiochem, UK) was used as a standard and values were expressed as MPO equivalents.
# [4] = Skeletal (gastrocnemius) muscle accretion in rats; assay type: in vivo, Hooded Lister rats; conditions: 6 d post-infection
# Protocol: Gastrocnemius muscle is taken as representative of skeletal muscle and total skeletal muscle in young Hooded-Lister rats as approximately 47 times the weight of the gastrocnemius muscle (Bardocz et al, 1996). Initial weight of gastrocnemius muscles 804±10 mg wet weight [194±7 mg dry weight] per 100 g initial fresh body weight.
# Further pieces of jejunum and ileum (15-25 cm from the pylorus and 15-25 cm from the ileo-caecal junction respectively) were collected and frozen in liquid nitrogen for biochemical analysis, as was the remaining small intestine tissue (˜40 cm), liver, spleen, kidney, thymus, lungs, heart and gastrocnemius hind-limb muscles. These were weighed, freeze-dried and reweighed.
# IL-8 = IL-8 protein in culture supernatants (ELISA); conditions: co-culture with S. enteritidis over 4 h (S. enteritidis alone 400 pg/ml)
# Caco-2 cells = experiment: Inflammatory cytokine gene expression in Caco-2 cells exposed to S. enteritidis (macroarray, Northern, real-time PCR); assay type: cell-based
substance,measurement,setting,value
Bacteroides thetaiotaomicron [BT],Time the bacterium remained viable in jelly,[1],at least 6 hours
same,Cellular distribution of PPARγ,PPARγ [2],redistributed to the cytosol
same,mRNA for PPARα and PPARγ,PPARγ [3],decreased
same,Faeces MPO,Immunoreactive MPO,2.6 ± 1.0^a μg/d
same,Ileum (20 cm) MPO,Myeloperoxidase (MPO),33.1 ± 6.2^a μg
same,Jejunum (20 cm) MPO,Myeloperoxidase (MPO),29.3 ± 5.2 µg
same,"Gastrocnemius muscle accretion rate, dry weight",[4],4.2±1.0 mg dry weight per day
same,"Gastrocnemius muscle accretion rate, wet weight",[4],17.0±4.2 mg wet weight per day
same,IL-8 protein in culture supernatants,IL-8,230 pg/mL
same,IL-10 gene expression,Caco-2 cells,not affected
same,"Induction of TNF-α, IL-8, MIP-2α and COX-2 expression following S. enteritidis exposure","Caco-2 cells; 10^8 S. enteritidis with 10^9 commensal bacteria, 2 hours",attenuated
